The test deals with T1, F508delCFTR (Homo sapiens, UniProt P13569, DEL508-508).
T1 construct: expressed in transfected cells; host or cells: CFBE41o- human lung-derived epithelial cells (CFBE4lo-F508delCFTR-HRP), doxycycline-inducible
Nature of the test: Cell Surface Expression-Horse Radish Peroxidase (CSE-HRP) Assay.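 On Maximum % activity (with co-corrector): co-corrector and positive control are both the same reference corrector at 2 µM.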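 On Maximum % activity (without co-corrector): percent of the 2 µM on-plate positive control corrector response above DMSO.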 Format: cell-based. The note with it: for Emax / Maximum % activity (with co-corrector): maximum at any tested concentration, normalized to on-plate positive control; for Emax: read-out: Maximum % activity (without co-corrector).

Setting [1] is: test compound without co-corrector.
The mark [2] stands for this setting: test compound without co-corrector, read-out: EC50 (without co-corrector).
[3] abbreviates: with co-corrector (2 μM of 3-[(2R,4R)-4-({[1-(2,2-difluoro-1,3-benzodioxol-5-yl)cyclopropyl]carbonyl}amino)-7-methoxy-3,4-dihydro-2H-chromen-2-yl]benzoic acid), read-out: EC50 (with co-corrector).
[4] abbreviates: CSE-HRP, test compound without co-corrector, read-out: EC50 (without co-corrector).
Setting [5] is: CSE-HRP, with co-corrector (2 μM of 3-[(2R,4R)-4-({[1-(2,2-difluoro-1,3-benzodioxol-5-yl)cyclopropyl]carbonyl}amino)-7-methoxy-3,4-dihydro-2H-chromen-2-yl]benzoic acid), read-out: EC50 (with co-corrector).
Setting [6] is: CSE-HRP, with co-corrector (2 μM).
Setting [7] is: with co-corrector (2 μM of 3-[(2R,4R)-4-({[1-(2,2-difluoro-1,3-benzodioxol-5-yl)cyclopropyl]carbonyl}amino)-7-methoxy-3,4-dihydro-2H-chromen-2-yl]benzoic acid).

This is an account of results in US20180099931A1 (AbbVie S.à.r.l., priority 2016, published 2018).

Like-named read-outs stand apart in the source and are kept apart here.

T1 sequence (P13569 with tags, fused parts or gaps DEL508-508): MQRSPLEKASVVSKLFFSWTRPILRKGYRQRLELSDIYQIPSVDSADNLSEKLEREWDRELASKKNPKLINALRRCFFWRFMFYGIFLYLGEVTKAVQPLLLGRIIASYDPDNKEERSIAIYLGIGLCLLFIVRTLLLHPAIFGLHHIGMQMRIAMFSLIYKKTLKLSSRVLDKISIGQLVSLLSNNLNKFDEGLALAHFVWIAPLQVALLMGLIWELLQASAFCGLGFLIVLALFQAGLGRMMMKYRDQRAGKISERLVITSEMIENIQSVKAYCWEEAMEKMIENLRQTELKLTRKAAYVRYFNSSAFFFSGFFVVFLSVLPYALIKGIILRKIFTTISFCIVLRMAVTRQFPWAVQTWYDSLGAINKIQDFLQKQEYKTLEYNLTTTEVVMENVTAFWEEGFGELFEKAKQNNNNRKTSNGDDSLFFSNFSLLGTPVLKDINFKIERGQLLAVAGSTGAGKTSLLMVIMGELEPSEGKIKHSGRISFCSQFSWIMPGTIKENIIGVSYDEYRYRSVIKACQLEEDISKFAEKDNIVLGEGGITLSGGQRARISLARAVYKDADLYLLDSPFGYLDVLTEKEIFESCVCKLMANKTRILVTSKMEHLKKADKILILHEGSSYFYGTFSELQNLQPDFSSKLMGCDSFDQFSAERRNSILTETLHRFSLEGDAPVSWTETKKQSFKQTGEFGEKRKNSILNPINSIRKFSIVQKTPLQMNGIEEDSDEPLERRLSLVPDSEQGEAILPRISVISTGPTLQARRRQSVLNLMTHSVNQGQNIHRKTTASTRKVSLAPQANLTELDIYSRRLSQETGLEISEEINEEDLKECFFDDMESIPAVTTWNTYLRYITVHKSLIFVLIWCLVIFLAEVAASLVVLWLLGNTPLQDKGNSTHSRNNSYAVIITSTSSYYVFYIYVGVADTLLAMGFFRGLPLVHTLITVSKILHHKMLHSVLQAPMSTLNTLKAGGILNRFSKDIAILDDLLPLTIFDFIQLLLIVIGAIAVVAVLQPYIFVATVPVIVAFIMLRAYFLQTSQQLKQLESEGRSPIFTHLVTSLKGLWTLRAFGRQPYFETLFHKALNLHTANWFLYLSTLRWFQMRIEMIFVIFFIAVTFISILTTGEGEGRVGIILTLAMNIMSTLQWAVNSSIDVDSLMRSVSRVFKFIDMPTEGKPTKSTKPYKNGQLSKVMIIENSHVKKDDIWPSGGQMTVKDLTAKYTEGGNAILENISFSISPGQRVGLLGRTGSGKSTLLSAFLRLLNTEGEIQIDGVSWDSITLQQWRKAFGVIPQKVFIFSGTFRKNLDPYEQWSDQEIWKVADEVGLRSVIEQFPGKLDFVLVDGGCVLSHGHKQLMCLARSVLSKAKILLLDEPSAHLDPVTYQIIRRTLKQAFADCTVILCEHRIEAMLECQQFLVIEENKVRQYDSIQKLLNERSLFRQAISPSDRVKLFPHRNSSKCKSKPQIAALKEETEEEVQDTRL

In the case of `COc1ccc2c(C)cc(N[C@H]3[C@H](C(C)(C)C)[C@@H](C(=O)O)N(C(=O)C4CCCCC4)[C@H]3c3ccccc3)nc2c1` [III-151], the Emax under setting [1] was below 100%. For the same compound, the EC50 was 1000 to 10000 nM under setting [2] and 1000 to 10000 nM under setting [3]. Where the note is “with co-corrector (2 μM)”, the “Maximum % activity (with co-corrector)” value was “++ (≥150 and <350)”.
For `COc1ncc(C(F)(F)F)cc1CN[C@H]1[C@H](C(C)(C)C)[C@@H](C(=O)O)N(C(=O)[C@@H]2OCC[C@@H]2Cn2cccn2)[C@H]1c1ccccc1` [III-200], the Emax under setting [1] was below 100%. Further, the EC50 under setting [2] is above 10000 nM and the EC50 under setting [3] is 1000 to 10000 nM. Besides, the “Maximum % activity (with co-corrector)” value (with co-corrector (2 μM)) is “++ (≥150 and <350)”.
In the case of `CC(C)(C)[C@H]1[C@H](NCc2cc3c(cc2Cl)OCO3)[C@H](c2ccccc2)N(C(=O)C2CCCCC2)[C@@H]1C(=O)O` [III-142], the Emax under setting [1] is below 100%. The EC50 reads like this: under setting [2], 1000 to 10000 nM; under setting [3], 1000 to 10000 nM. In addition, the “Maximum % activity (with co-corrector)” value (with co-corrector (2 μM)) is “++ (≥150 and <350)”.
In the case of `COc1ccc(C23CC(C2)C3)cc1CN[C@H]1[C@H](C(C)(C)C)[C@@H](C(=O)O)N(C(=O)[C@@H]2CCCCO2)[C@H]1c1cccnc1N(C)C` [Example 51, (2S,3S,4S,5S)-4-({[5-(bicyclo[1.1.1]pentan-1-yl)-2-methoxyphenyl]methyl}amino)-3-tert-butyl-5-[2-(dimethylamino)pyridin-3-yl]-1-[(2S)-oxane-2-carbonyl]pyrrolidine-2-carboxylic acid], the EC50 is 1000 to 10000 nM under setting [2] and below 1000 nM under setting [3]. In addition, the “Maximum % activity (with co-corrector)” value (with co-corrector (2 μM)) is reported as “+++ (≥350)”. Also, where the note is “without co-corrector”, the Emax is above 200%.
On the same counts, the results for `COc1ccc(C(C)(C)C)cc1CN[C@H]1[C@H](C(C)(C)C)[C@@H](C(=O)O)N(C(=O)CC2(O)CCCC2)[C@H]1c1ccccc1` [Example I-99] are 1000 to 10000 nM, 1000 to 10000 nM, “+++ (≥350)” and above 200%.
Regarding `COc1cc(CN[C@H]2[C@H](C(C)(C)C)[C@@H](C(=O)O)N(C(=O)C3CCCCC3)[C@H]2c2ccccc2)c(Br)cc1F` [II-114], the EC50 runs as follows: under setting [4], below 1000 nM; under setting [5], 1000 to 10000 nM. The “Maximum % activity (with co-corrector)” value under setting [6] is reported as “+++ (≥350)”. The Emax (CSE-HRP, without co-corrector) was below 100%.
Take `CCC(C)(O)CC(=O)N1[C@H](C(=O)O)[C@@H](C(C)(C)C)[C@H](NCc2cc(C(C)(C)C)ccc2OC)[C@@H]1c1ccccc1` (stereo partly drawn) [II-371]: under setting [1], the Emax was above 200%. For the same compound, the EC50 by setting is: under setting [2], 1000 to 10000 nM; under setting [3], 1000 to 10000 nM. The “Maximum % activity (with co-corrector)” value under setting [7] was “+++ (≥350)”.
As for `COc1nc2ccccc2cc1CN[C@H]1[C@H](C(C)(C)C)[C@@H](C(=O)O)N(C(=O)OC(C)C)[C@H]1c1ccccc1C(C)C` [Example I-250], the EC50 runs as follows: under setting [4], 1000 to 10000 nM; under setting [5], below 1000 nM. Besides, the “Maximum % activity (with co-corrector)” value under setting [6] is “+++ (≥350)”. In addition, the Emax (CSE-HRP, without co-corrector) was above 200%.
Consider `CC(C)(C)[C@H]1[C@H](Nc2ccc(Cn3ccccc3=O)cn2)[C@H](c2ccccc2)N(C(=O)C2CCCCC2)[C@@H]1C(=O)O` [III-153], for which the Emax under setting [1] is below 100%. The EC50 reads like this: under setting [2], above 10000 nM; under setting [3], above 10000 nM. Under “with co-corrector (2 μM)”, the “Maximum % activity (with co-corrector)” value is on record as “+ (<150)”.
`COc1cc(C(F)(F)F)ccc1CN[C@H]1[C@H](C2(C)CC2)[C@@H](C(=O)O)N(C(=O)C2CCCCC2)[C@H]1c1ccccc1` [II-303]: the EC50 runs as follows: under setting [4], 1000 to 10000 nM; under setting [5], 1000 to 10000 nM. Under setting [6], the “Maximum % activity (with co-corrector)” value is “+++ (≥350)”. Moreover, the Emax (CSE-HRP, without co-corrector) is below 100%.
As for `COc1cc(C(F)(F)F)ccc1CN[C@H]1[C@H](C(C)(C)OC)[C@@H](C(=O)O)N(C(=O)C2CCCCC2)[C@H]1c1ccccc1` [II-150], the EC50 is, setting by setting: under setting [4], 1000 to 10000 nM; under setting [5], below 1000 nM. Also, the “Maximum % activity (with co-corrector)” value under setting [6] was “+++ (≥350)”. For the same compound, the Emax (CSE-HRP, without co-corrector) was above 200%.
Consider `Cc1cc(C(F)(F)F)cc(N[C@H]2[C@H](C(C)(C)C)[C@@H](C(=O)O)N(C(=O)C3CCCC(F)(F)C3)[C@H]2c2cccnc2N(C)C)n1` (stereo partly drawn) [II-503], for which the Emax under setting [1] was below 100%. Moreover, the EC50 is, setting by setting: under setting [2], 1000 to 10000 nM; under setting [3], 1000 to 10000 nM. For the same compound, under setting [7], the “Maximum % activity (with co-corrector)” value was “+++ (≥350)”.
As for `COc1ncc(-c2ccccc2)cc1CN[C@H]1[C@H](C(C)(C)C)[C@@H](C(=O)O)N(C(=O)C2CCCCC2)[C@H]1c1ccccc1` [Example 25, (2S,3S,4S,5S)-3-tert-butyl-1-(cyclohexanecarbonyl)-4-{[(2-methoxy-5-phenylpyridin-3-yl)methyl]amino}-5-phenylpyrrolidine-2-carboxylic acid], the EC50 under setting [2] was below 1000 nM and the EC50 under setting [3] was below 1000 nM. Further, the “Maximum % activity (with co-corrector)” value (with co-corrector (2 μM)) is recorded as “+++ (≥350)”. The Emax (without co-corrector) was 100 to 200%.
As for `COc1ccc(C(C)(C)C)cc1CN[C@H]1[C@H](C(C)(C)C)[C@@H](C(=O)O)N(C(=O)C(C)Oc2cc(C)cc(C)c2)[C@H]1c1ccccc1` (stereo partly drawn) [III-190], under setting [1], the Emax was above 200%. For the same compound, the EC50 was 1000 to 10000 nM under setting [2] and below 1000 nM under setting [3]. Also, the “Maximum % activity (with co-corrector)” value (with co-corrector (2 μM)) is recorded as “+++ (≥350)”.
As to `COc1ccc(C(C)(C)C)cc1CN[C@H]1[C@H](C(C)(C)C)[C@@H](C(=O)O)N(C(=O)C2CCO2)[C@H]1c1ccccc1` (stereo partly drawn) [II-443], under setting [1], the Emax was above 200%. For the same compound, the EC50 fell in the range of 1000 to 10000 nM under setting [2] and 1000 to 10000 nM under setting [3]. Also, under setting [7], the “Maximum % activity (with co-corrector)” value is “+++ (≥350)”.
Take `COc1ccc(C(C)(C)C)cc1CN[C@H]1[C@H](C(C)(C)C)[C@@H](C(=O)O)N(C(=O)[C@@H]2CCCO2)[C@H]1c1ccccc1` [Example 34, (2S,3S,4S,5S)-3-tert-butyl-4-{[(5-tert-butyl-2-methoxyphenyl)methyl]amino}-1-[(2S)-oxolane-2-carbonyl]-5-phenylpyrrolidine-2-carboxylic acid]: the EC50 lay within 1000 to 10000 nM under setting [2] and 1000 to 10000 nM under setting [3]. Further, the “Maximum % activity (with co-corrector)” value (with co-corrector (2 μM)) is recorded as “+++ (≥350)”. For the same compound, the Emax (without co-corrector) was above 200%.
On to `COC(=O)N1CCC[C@H](C(=O)N2[C@H](c3ccccc3)[C@H](Nc3cc(C(F)(F)F)cc(C)n3)[C@@H](C(C)(C)C)[C@@H]2C(=O)O)C1` (racemic) [II-27], for which the EC50 by setting is: under setting [4], 1000 to 10000 nM; under setting [5], 1000 to 10000 nM. Also, under setting [6], the “Maximum % activity (with co-corrector)” value is on record as “+++ (≥350)”. The Emax (CSE-HRP, without co-corrector) was above 200%.
For `COc1cc(C(F)(F)F)ccc1CN[C@@H]1[C@@H](C(C)(C)C)[C@H](C(=O)O)N(C(=O)[C@@H]2CCCCO2)[C@@H]1c1ccccc1` (racemic) [II-49], the EC50 under setting [4] fell in the range of 1000 to 10000 nM and the EC50 under setting [5] fell in the range of 1000 to 10000 nM. Also, under setting [6], the “Maximum % activity (with co-corrector)” value is given as “+++ (≥350)”. For the same compound, the Emax (CSE-HRP, without co-corrector) lay in the range of 100 to 200%.
Take `COc1cccnc1CN[C@@H]1[C@@H](C(C)(C)C)[C@H](C(=O)O)N(C(=O)C2CCCCC2)[C@@H]1c1ccccc1` (racemic) [III-21]: the Emax under setting [1] was below 100%. The EC50 reads like this: under setting [2], above 10000 nM; under setting [3], 1000 to 10000 nM. Further, the “Maximum % activity (with co-corrector)” value under setting [7] was “++ (≥150 and <350)”.
As for `Cc1cc(C)cc(CN[C@H]2[C@H](C(C)(C)C)[C@@H](C(=O)O)N(C(=O)C3CCCCC3)[C@H]2c2ccccc2)c1` [II-132], the EC50 reads like this: under setting [4], 1000 to 10000 nM; under setting [5], 1000 to 10000 nM. Under setting [6], the “Maximum % activity (with co-corrector)” value is reported as “+++ (≥350)”. Besides, the Emax (CSE-HRP, without co-corrector) was below 100%.
As to `COc1ccc(C(C)(C)C)cc1CN[C@H]1[C@H](C(C)(C)C)[C@@H](C(=O)O)N(C(=O)C2CCCC(C(F)(F)F)C2)[C@H]1c1cccnc1N(C)C` (stereo partly drawn) [III-206], under setting [1], the Emax is above 200%. Also, the EC50 reads like this: under setting [2], 1000 to 10000 nM; under setting [3], below 1000 nM. The “Maximum % activity (with co-corrector)” value (with co-corrector (2 μM)) is “+++ (≥350)”.
For `COc1ccc(C(C)(C)C)cc1CN[C@H]1[C@H](C(C)(C)C)[C@@H](C(=O)O)N(C(=O)[C@]2(C)COc3cc4c(cc32)OC(F)(F)O4)[C@H]1c1cccnc1OC` [III-230], the Emax under setting [1] was below 100%. Besides, the EC50 reads like this: under setting [2], 1000 to 10000 nM; under setting [3], 1000 to 10000 nM. Moreover, the “Maximum % activity (with co-corrector)” value (with co-corrector (2 μM)) was “++ (≥150 and <350)”.
In the case of `CCC(CC)C(=O)N1[C@H](C(=O)O)[C@@H](C(C)(C)C)[C@H](NCc2cc(C(C)(C)C)ccc2OC)[C@@H]1c1ccccc1` [II-329], the Emax under setting [1] was above 200%. Moreover, the EC50 under setting [2] was in the range of 1000 to 10000 nM and the EC50 under setting [3] lay in the range of 1000 to 10000 nM. Moreover, the “Maximum % activity (with co-corrector)” value under setting [7] is “+++ (≥350)”.
Regarding `COc1ccc(C(C)(C)C)cc1CN[C@H]1[C@H](C(C)(C)C)[C@@H](C(=O)O)N(C(=O)[C@@H]2CCCC(F)(F)C2)[C@H]1c1ccccc1` [Example 31, (2S,3S,4S,5S)-3-tert-butyl-4-{[(5-tert-butyl-2-methoxyphenyl)methyl]amino}-1-[(1R)-3,3-difluorocyclohexane-1-carbonyl]-5-phenylpyrrolidine-2-carboxylic acid], the EC50 under setting [2] is below 1000 nM and the EC50 under setting [3] was below 1000 nM. In addition, the “Maximum % activity (with co-corrector)” value (with co-corrector (2 μM)) is “+++ (≥350)”. For the same compound, where the note is “without co-corrector”, the Emax is above 200%.

Broadly, the EC50 is the midpoint of the concentration-response curve.
